Assay results reported in US7786042B2, “Fluridone as an anti-inflammatory agent” (Universita' Degli Studi Di Genova, priority 2005, dated 2010).
Entries after “also recorded” stand apart in the source; their conditions may differ. Read-outs that look alike come from different tables or passages of the source.

How the values were obtained:
Assay type in all cases: cell-based
[1] = test system: murine microglia cell line N9; assay: TNF-α release by murine microglia N9
Method: Confluent cell cultures from the murine microglia cell line N9 were pre-incubated in the presence or in the absence of 50 μM fluridone for 4 hours and then stimulated with 10 μM ABA or with 100 ng/ml lipopolysaccharide for 24 hours. The concentration of PGE2 (panel A) and of TNF-α (panel B) in the cell supernatant was measured as described under Materials and Methods. The results are expressed as release relative to control cultures in the absence of added stimuli and are the mean ±SD from 4 experiments.
(§1) The method used to assay TNF-α is based on the high sensitivity of the murine fibroblast cell line L929 to the toxic effect of this cytokine. Briefly, fibroblasts were seeded (3×10^4/well) in 96-well plates and after 24 h the medium was substituted with the supernatant of the cell cultures where the TNF-α content was to be estimated. In parallel, known amounts of the cytokine were added to other wells, in order to obtain a standard curve of toxicity. After 48 hours, MTT (0.05 mg/ml) was added to each well and after 3 hours incubation at 37° C. (during this time viable cells reduce the dye producing formazan crystals), the medium was removed, DMSO (200 μl/well) was added to dissolve the formazan crystals and the absorbance was recorded at 570 nm with a spectrophotometric plate reader. The TNF-α concentration in the culture supernatants was calculated by comparison of the percentage of viable cells in the treated wells with those containing known amounts of TNF-α (standard curve). The PGE2 release in the medium by stimulated inflammatory cells was measured by an immunoenzymatic assay kit, commercially available (PGE2 EIA-kit, Cayman Chemicals, Ann Arbor, Mich., USA).

[2] = test system: human monocytes; assay: PGE2 production / COX-2 expression in human monocytes
Method: (§2) Human monocytes were pre-incubated with 50 μM fluridone (flu) for 2 hours and then stimulated with 10 μM ABA or with 100 ng/ml of lipopolysaccharide (LPS) for 6 hours. The concentration of PGE2 (panel A) and of TNF-α (panel B) in the cell supernatant was measured as described under Materials and Methods and compared with that of untreated cells (control). The results are the mean ±SD from 4 experiments.
as §1

[3] = test system: human granulocytes; assay: ROS production by granulocytes (cytochrome c assay); conditions: ABA 0.2-20 μM
Method: Granulocytes were resuspended at 5×10^6/ml in HBSS and 225 μl of the cell suspension were added to 50 μl of 0.2 mM cytochrome c and were incubated for 30 min at 37° C. in the absence (control) or in the presence of 250 nM or 20 μM ABA, the latter concentration without or with 1 mM EDTA, 20 mM nicotinamide or 0.1 mM 8-Br-cADPR. The amount of ROS (panel A) or of NO (panel B) in the cell supernatant was measured as described in Materials and Methods. The results are expressed as the production relative to control cells, not stimulated with ABA, and are the mean ±SD from 5 experiments.
Release of superoxide (O2^−) by human granulocytes was quantified by a spectrophotometric assay of cytochrome c reduction (Cohen, J Clin Invest 1978). Granulocytes were resuspended in HBSS (at 5×10^6 cells/ml) and 225 μl of the cell suspension was incubated for 30 min at 37° C. with 50 μl cytochrome c (0.2 mM) in the absence (control) or in the presence of ABA at different concentrations. Then, cells were centrifuged at 5,000×g for 15 s and the absorbance of the supernatants was recorded at 550 nm (λmax for reduced cytocrome c).

[4] = test system: human monocytes; assay: MCP-1 release from human monocytes
Method: Human monocytes were incubated for 6 hours with 10 μM ABA or with 100 ng/ml of lipopolysaccharide (LPS), in the presence or in the absence of fluridone (50 μM) and the MCP-1 concentration in the cell supernatant was immunoenzimatically measured, with a commercially available kit (R&D System, CA, USA). The results are the mean ±SD from 3 experiments.

[5] = test system: murine macrophages RAW 264.7; assay: PGE2 production by murine macrophages RAW 264.7
Method: (§3) Murine macrophages of the continuous cell line RAW 264.7 were pre-incubated with 50 μM fluridone (flu) for 2 hours and then stimulated with 10 μM ABA or with 100 ng/ml of lipopolysaccharide (LPS) for 6 hours. The concentration of PGE2 (panel A) or of TNF-α (panel B) in the cell supernatant was measured as described under Materials and Methods and was compared with that from untreated (control) cells. The results are the mean ±SD from 4 experiments.
as §1

[6] = test system: murine macrophages RAW 264.7; assay: TNF-α production by murine macrophages RAW 264.7
Method: as §3, §1

[7] = test system: human lymphocytes; assay: Lymphocyte proliferation ([3H]-thymidine incorporation); conditions: for inhibition at 50 µM: Homo sapiens, Lymphocyte, pre-incubation with fluridone 50 μM
Method: Low density mononuclear cells (lymphocytes and monocytes), isolated from peripheral blood, were incubated in triplicate (1.5×10^5/well) in 96-well plates in RPMI containing 20% autologous plasma in the absence (control) or in the presence of 50 μM fluridone for 18 hours. Phytohemagglutinin (PHA) (0.1 μg/ml) or phorbol myristate acetate (PMA) (0.1 μg/ml) were then added, with or without the simultaneous addition of ABA. After 72 hours, [^3H]-Thymidine (Amersham Biosciences, Uppsala, Sweden) was added to the cultures (0.2 μCi/well) and after 6 hours the incorporated radioactivity was evaluated by filtration of the cells on glass fiber filters (Whatman, Maidenstone, UK). Results are the mean ±SD from 3 experiments. In the absence of stimuli (PHA or PMA), no lymphocyte proliferation was observed.
Blood enriched in leukocytes (buffy coat), was provided by Galliera Hospital, Genova, Italy, upon informed consent of the volunteer donors. Lymphocytes, granulocytes and monocytes were isolated by density centrifugation through Ficoll-Paque (Amersham Biosciences, Uppsala, Sweden). Low-density mononuclear cells (including lymphocytes and monocytes) were collected at the plasma-Ficoll interphase and monocytes were further purified by adherence to plastic cell culture flasks. Granulocytes were isolated from high-density cells, sedimented under the Ficoll layer by hypotonic lysis of contaminating erythrocytes. All cell populations were then resuspended in RPMI 1640 medium (Sigma) containing penicillin (100 U/ml), streptomycin (100 μg/ml) and 20% autologous plasma. Culture conditions were as those described below for cell lines.

[8] = test system: human granulocytes; assay: Chemotaxis and chemokinesis of granulocytes; conditions: ABA 0.2-20 μM
Method: Assays were performed using 96-well ChemoTx system microplates with a 3-μm pore size polycarbonate filter (NeuroProbe Inc., Gaithersburg, USA). Cells (granulocytes or murine microglia) were resuspended at 10^7/ml in HBSS, PBS and 5% albumin, 39:16:1 (chemotaxis buffer, CB). In order to evaluate the chemoattractant effect of ABA, hormone concentrations ranging from 50 nM to 20 μM were added in CB in the bottom wells and 25 μl cell suspensions were placed on top of the filter. To evaluate a possible stimulatory effect of ABA on spontaneous cell movements (chemokinesis), cells were pre-incubated with or without 20 μM ABA, then washed and placed on top of the filter, in contact with CB. Plates were incubated at 37° C. for 60 min and transmigrated cells were recovered and quantified by fluorimetric assay with Cytox Green. The number of transmigrated cells was calculated by comparison of the measured fluorescence with that of a standard curve, obtained by directly placing a serial dilution of cells in the bottom wells. The results of the chemotaxis experiments are expressed as “chemotaxis index” (CI): CI=number of cells migrated towards chemoattractant/number of cells migrated towards CB

[9] = test system: human granulocytes; assay: NO release by granulocytes (nitrite, Griess)
Method: Granulocytes were resuspended at 5×10^6/ml in HBSS and 225 μl of the cell suspension were added to 50 μl of 0.2 mM cytochrome c and were incubated for 30 min at 37° C. in the absence (control) or in the presence of 250 nM or 20 μM ABA, the latter concentration without or with 1 mM EDTA, 20 mM nicotinamide or 0.1 mM 8-Br-cADPR. […] The results are expressed as the production relative to control cells, not stimulated with ABA, and are the mean ±SD from 5 experiments.

[10] = test system: human monocytes; assay: TNF-α release by human monocytes (L929 toxicity assay)
Method: as §2, §1

[11] = test system: murine microglia cell line N9; assay: NO release by murine microglia N9
Method: The method used to determine NO released from the cells into the medium exploits the spontaneous conversion of NO to nitrates and the subsequent enzymatic reduction of nitrates to nitrites by the enzyme nitrate reductase. […] Granulocytes (60×10^6/well) or murine microglia cells N9 (2×10^5/well) were incubated in 24-well plates for 60 min at 37° C. in the presence of ABA at different concentrations. The supernatants were then centrifuged and diluted with an equal volume of Griess reagent (0.1% naphthyl-ethylenediamine dihydrochloride in distilled water, 1% sulphanylamide in 5% concentrated H3PO4). Absorbance at 545 nm was estimated after 10 min and the nitrite concentration was calculated using a standard curve, generated in parallel with known amounts of NaNO2.

[12] = test system: human lymphocytes and monocytes; assay: Cell viability by Trypan blue exclusion, human cells; conditions: fluridone 50 μM
Method: Inhibition of proliferation is not due to fluridone toxicity since the percentage of viable cells (excluding the dye Trypan blue) was similar in the cultures incubated with fluridone compared to controls.
A similar effect (90% inhibition) is produced by fluridone also on the LPS-induced TNF-α production in both cell types (FIGS. 7 A and B). In all these cases, no toxicity of fluridone on the cells was observed, as evaluated by the ability of excluding the dye Trypan blue.

[13] = exogenous ABA 10-20 μM added to fluridone-treated cultures

Structure (SMILES): CC1=CC(=O)CC(C)(C)[C@@]1(O)/C=C/C(C)=C\C(=O)O (racemic) [ABA, (±)-cis, trans ABA]
- release of TNF-α ([1]; ABA 0.2-20 μM): increase; also recorded: ↑TNF-α release
- TNF-α release compromised by fluridone [1, 13]: partly restores
- expression of cyclooxygenase 2 (COX-2), Western blot ([2]; ABA 0.1-10 μM): increased expression
- production of prostaglandin E2 (PGE2) ([2]; ABA 0.1-10 μM): increased production
- Effects of ABA: COX-PGE2 ([2]; Added ABA 5-50 μM): ↑COX-PGE2
- production of reactive oxygen species (ROS) [3]: stimulation; also recorded: ↑ROS release
- increase of release of MCP-1 ([4]; ABA 0.1-10 μM): approx. two-fold
- Effects of ABA: MCP-1 release ([4]; Added ABA 5-50 μM): ↑MCP-1 release
- release of PGE2 (COX-PGE2) ([5]; ABA 0.1-10 μM): increased release; also recorded: ↑COX-PGE2
- release of TNF-α ([6]; ABA 0.1-10 μM): increased release; also recorded: ↑TNF-α release
- TNF-α release compromised by fluridone [6, 13]: partly restores
- stimulation of proliferation ([7]; ABA 50 to 500 μM, in the absence of other stimuli (PMA, PHA)): 30%
- Effects of ABA: proliferation ([7]; Added ABA 50-500 μM): ↑proliferation
- restoration of the proliferative response ([7]; excess exogenous ABA 500 μM together with fluridone): approximately 40%
- chemokinesis [8]: significant increase; also recorded: ↑chemokinesis
- chemotaxis (chemoattractant effect) [8]: behaves as a chemoattractant; also recorded: ↑chemotaxis
- production/release of nitric oxide (NO) ([9]; ABA 0.2-20 μM): stimulation; also recorded: ↑NO release
- release of TNF-α ([10]; ABA 0.1-10 μM): significant increase
- Effects of ABA: TNF-α release ([10]; Added ABA 5-50 μM): ↑TNF-α release
- TNF-α release compromised by fluridone [10, 13]: partly restores
- release of NO ([11]; ABA 0.2-20 μM): increase; also recorded: ↑NO release
- NO release compromised by fluridone [11, 13]: partly restores

Structure (SMILES): Cn1cc(-c2ccccc2)c(=O)c(-c2cccc(C(F)(F)F)c2)c1 [Fluridone, 1-methyl-3-phenyl-5-(α,α,α-trifluoro-m-tolyl)-4-pyridone]
- Effects of Fluridone: TNF-α release [1]: ↓TNF-α release
- toxicity on the cells (Trypan blue exclusion) ([12]; human monocytes): no toxicity
- percentage of viable cells (excluding Trypan blue) compared to controls ([12]; lymphocyte cultures): similar
- Effects of Fluridone: COX-PGE2 [2]: ↓COX-PGE2
- LPS-stimulated PGE2 production ([2]; fluridone 50 μM): completely inhibits
- Effects of Fluridone: MCP-1 release [4]: ↓MCP-1 release
- release of MCP-1 by LPS-stimulated monocytes ([4]; fluridone 50 μM): almost completely inhibits
- Effects of Fluridone: COX-PGE2 [5]: ↓COX-PGE2
- LPS-stimulated PGE2 production ([5]; fluridone 50 μM): completely inhibits
- Effects of Fluridone: TNF-α release [6]: ↓TNF-α release
- inhibition at 50 µM ([6]; Mus musculus, RAW264.7, fluridone 50 μM, read-out: inhibition of LPS-induced TNF-α production): 90%
- Effects of Fluridone: PMA-, LPS-, PHA-induced proliferation [7]: ↓PMA-, LPS-,
- inhibition at 50 µM ([7]; read-out: inhibition of PHA-induced cell proliferation): 50%
- inhibition at 50 µM ([7]; read-out: inhibition of PMA-induced cell proliferation): 90%
- Effects of Fluridone: fMLP-, ATP-, β-amyloid-induced NO release [9]: ↓fMLP-, ATP-, β-
- inhibition at 50 µM ([9]; Homo sapiens, read-out: inhibition of NO release): ~80%
- Effects of Fluridone: TNF-α release [10]: ↓TNF-α release
- inhibition at 50 µM ([10]; Homo sapiens, Monocyte, fluridone 50 μM, read-out: inhibition of LPS-induced TNF-α production): 90%
- Effects of Fluridone: NO release [11]: ↓NO release
